The source of these data is publication PMC3419191, “Identification of Novel Piperazinylquinoxaline Derivatives as Potent Phosphoinositide 3-Kinase (PI3K) Inhibitors” (PLoS ONE, 2012).

The structures appear in SMILES notation.

In data set [1] the test system is PC3. The data set is described as follows: MTT assay, antiproliferative activity against PC3 cells. Type of data set: cell-based. To be noted: Homo sapiens, PC-3, 72 h, mean of at least two determinations. The text has this: (§1) All synthesized target compounds were firstly tested for their antiproliferative activity against five human cancer cell lines, PC3, A549, HCT116, HL60, and KB, using MTT assay.
(§2) Human prostate cancer PC3 cells, lung adenocarcinoma epithelial A549 cells, colon cancer HCT116 cells, promyelocytic leukemia HL60 cells and nasopharyngeal carcinoma KB cells were obtained from the cell bank of the Institute of Biochemistry and Cell Biology, Chinese Academy of Sciences (Shanghai, China). The inhibitory activity of target compounds against tested cancer cell lines was measured using the MTT assay. PC3, A549, HCT116, HL60, and KB cancer cell lines were cultured in RPMI-1640 medium (Invitrogen, Carlsbad, CA, USA) with heat-inactivated 10% fetal bovine serum, penicillin (100 units/mL) and streptomycin (100 µg/mL) and incubated in an atmosphere with 20% oxygen and 5% carbon dioxide at 37°C. All tested compounds were dissolved in DMSO at concentrations of 10.0 mg/mL and diluted to appropriate concentrations. Cells were plated in 96-well plates for 24 h and subsequently treated with different concentrations of all tested compounds for 72 h. Viable cells were determined using 3-(4,5-dimethylthiazol-2-yl)-2,5-diphenyltetrazolium bromide assay kit (MTT, Sigma) according to operation instructions provided by the manufacturer. The concentration of drug causing 50% inhibition in absorbance compared with control cells (IC50) was calculated using the software of dose-effect analysis with microcomputers.

Data set [2] has as its system A549. Put plainly: MTT assay, antiproliferative activity against A549 cells. The data set is classed as cell-based. To be noted: Homo sapiens, 72 h, mean of at least two determinations.
Description: as §1, §2

Data set [3] relates to HCT116. Put plainly: MTT assay, antiproliferative activity against HCT116 cells. Type of data set: cell-based. The conditions noted are these: Homo sapiens, HCT-116, 72 h, mean of at least two determinations.
Description: as §1, §2

Data set [4] concerns HL60. Put plainly: MTT assay, antiproliferative activity against HL60 cells. The conditions noted are these: Homo sapiens, HL-60, 72 h, mean of at least two determinations. Type of data set: cell-based.
Description: as §1, §2

For data set [5], the system named is KB. The data set is described as follows: MTT assay, antiproliferative activity against KB cells. The data set is classed as cell-based. To be noted: Homo sapiens, 72 h, mean of at least two determinations.
Description: as §1, §2

For data set [6], the target named is T1, recombinant human PI3Kα (Homo sapiens, UniProt P42336).
T1 construct: purchased Echelon Biosciences (Salt Lake City, UT, USA) E-2000
T1 sequence (P42336 whole entry): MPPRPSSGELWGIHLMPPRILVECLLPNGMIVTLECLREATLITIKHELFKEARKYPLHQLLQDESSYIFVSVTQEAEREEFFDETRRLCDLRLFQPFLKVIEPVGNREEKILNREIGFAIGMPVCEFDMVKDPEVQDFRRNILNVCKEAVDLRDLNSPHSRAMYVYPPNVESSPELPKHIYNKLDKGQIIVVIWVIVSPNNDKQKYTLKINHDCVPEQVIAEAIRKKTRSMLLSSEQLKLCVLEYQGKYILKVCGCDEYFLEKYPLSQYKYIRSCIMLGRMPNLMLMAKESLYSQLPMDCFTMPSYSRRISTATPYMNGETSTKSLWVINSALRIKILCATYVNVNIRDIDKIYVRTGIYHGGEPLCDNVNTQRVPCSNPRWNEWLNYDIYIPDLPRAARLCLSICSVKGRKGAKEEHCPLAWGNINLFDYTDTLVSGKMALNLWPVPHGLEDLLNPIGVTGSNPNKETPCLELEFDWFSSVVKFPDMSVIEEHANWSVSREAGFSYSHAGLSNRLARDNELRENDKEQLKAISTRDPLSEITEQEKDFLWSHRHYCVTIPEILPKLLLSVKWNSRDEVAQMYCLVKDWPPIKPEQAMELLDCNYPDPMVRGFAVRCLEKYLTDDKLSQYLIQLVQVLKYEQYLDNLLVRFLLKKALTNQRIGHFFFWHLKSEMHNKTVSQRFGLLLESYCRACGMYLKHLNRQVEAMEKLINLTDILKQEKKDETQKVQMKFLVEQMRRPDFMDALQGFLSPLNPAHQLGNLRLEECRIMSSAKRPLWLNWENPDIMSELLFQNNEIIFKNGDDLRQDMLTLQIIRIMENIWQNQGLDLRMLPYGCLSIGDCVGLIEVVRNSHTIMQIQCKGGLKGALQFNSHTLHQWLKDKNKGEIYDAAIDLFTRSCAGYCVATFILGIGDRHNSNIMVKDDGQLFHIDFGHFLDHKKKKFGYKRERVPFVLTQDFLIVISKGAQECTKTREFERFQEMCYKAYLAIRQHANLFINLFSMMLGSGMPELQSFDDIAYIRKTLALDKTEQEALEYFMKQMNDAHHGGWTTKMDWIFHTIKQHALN
T1 sequence (P27986 whole entry partner): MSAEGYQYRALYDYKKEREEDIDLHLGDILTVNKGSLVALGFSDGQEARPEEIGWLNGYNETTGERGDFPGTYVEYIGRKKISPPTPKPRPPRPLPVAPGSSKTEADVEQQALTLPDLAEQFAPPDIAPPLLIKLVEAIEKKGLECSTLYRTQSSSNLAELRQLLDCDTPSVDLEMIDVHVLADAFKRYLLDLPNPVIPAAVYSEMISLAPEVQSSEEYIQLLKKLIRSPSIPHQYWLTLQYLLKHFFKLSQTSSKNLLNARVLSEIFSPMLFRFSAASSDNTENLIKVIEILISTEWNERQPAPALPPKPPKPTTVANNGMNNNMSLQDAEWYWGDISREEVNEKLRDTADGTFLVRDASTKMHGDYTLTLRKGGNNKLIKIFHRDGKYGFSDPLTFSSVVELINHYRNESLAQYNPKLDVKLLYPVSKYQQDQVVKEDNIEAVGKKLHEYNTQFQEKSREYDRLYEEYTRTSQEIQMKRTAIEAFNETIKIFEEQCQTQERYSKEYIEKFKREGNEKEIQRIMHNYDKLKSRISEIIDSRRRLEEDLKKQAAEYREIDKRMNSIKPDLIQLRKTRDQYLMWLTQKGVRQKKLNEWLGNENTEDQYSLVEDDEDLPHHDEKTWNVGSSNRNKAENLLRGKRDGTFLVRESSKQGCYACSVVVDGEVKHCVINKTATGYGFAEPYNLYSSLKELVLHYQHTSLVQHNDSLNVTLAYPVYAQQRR
The data set is described as follows: Competitive fluorescence polarization (FP) assay, inhibition of PI3Kα. Type of data set: biochemical. To be noted: for IC50: FP assay, 50 µM ATP, mean of at least two determinations; for Binding efficiency index (BEI): BEI = pIC50 (M)/MW (kDa), PI3Kα. As to the method: Selected compounds were then tested for their enzymatic inhibitory activity against PI3Kα using a competitive fluorescence polarization (FP) assay to determine the molecular target of synthesized compounds [21].
The PI3Kα inhibitory test was determined using a competitive fluorescence polarization kinase activity assay. PI3K fluorescence polarization assay kit (catalog No. K-1100) and recombinant human PI3Kα (catalog No. E-2000) were purchased from Echelon Biosciences (Salt Lake City, UT, USA). PI3K reactions were performed in 5 mM HEPES, Ph 7, 2.5 mM MgCl2, 10 mM DTT and 50 µM ATP, using diC8-phosphatidylinositol-4, 5-bisphosphate (PIP2) as the substrate, and the final reaction volumes were 10 µL. For evaluation of the PI3Kα inhibitory activity of target compounds, 50 ng enzyme and 10 µM substate were used per 10 µL reaction volume with the concentrations of inhibitors ranging from 3.2 nM to 10 µM. After incubating for 3 h at room temperature, reactions were quenched by adding chelators. A mixture of phosphoinositide binding protein was added and mixed, followed by the addition of a fluorophore-labeled phosphoinositide tracer. Samples were then mixed in 384-well black Corning nonbinding plates (Corning, NY, USA) and incubated in a dark environment for 1 h to equilibrate. Finally, polarization values were measure using red fluorophores with appropriate filters to determine the extent of enzyme activity in the reaction.

`NC(=O)C1CCN(c2nc3ccccc3nc2S(=O)(=O)c2ccccc2)CC1` [Compound 4, 2-(4-Carbamoylpiperidin-1-yl)-3-(phenylsulfonyl)Fquinoxaline] yielded a melting point of 170 to 174 °C. Also, the IC50 in data set [1] was 1200 nM. Half-maximal inhibition in data set [2] (IC50) was put at 26600 nM. The IC50 in data set [3] was 1570 nM. The molecule also yielded a half-maximal inhibitory concentration (IC50) in data set [4] of 220 nM. This molecule also showed an IC50 in data set [5] of 13700 nM. Besides, the IC50 in data set [6] is over 10000 nM.

`CC(=O)N1CCN(c2nc3ccccc3nc2S(=O)(=O)c2ccccc2)CC1` [Compound 9, 2-(4-Acetylpiperazin-1-yl)-3-(phenylsulfonyl)quinoxaline]: the melting point was in the range of 144 to 146 °C. This molecule showed an IC50 in data set [1] of 2250 nM. For the same molecule, the half-inhibitory concentration (IC50) in data set [2] worked out at 1020 nM. In addition, in data set [3], inhibition was half-maximal at 1840 nM (IC50). This molecule had an IC50 in data set [4] of 2430 nM. The same molecule yielded a half-inhibitory concentration (IC50) in data set [5] of 4420 nM. In addition, in data set [6], the “Binding efficiency index (BEI)” value came to 15.1 and the IC50 is 1090 nM.

Regarding `CN1CCN(c2nc3ccccc3nc2S(=O)(=O)c2ccccc2)CC1` [Compound 14, 2-(4-Methylpiperazin-1-yl)-3-(phenylsulfonyl)quinoxaline], the melting point was in the range of 154 to 157 °C. Further, the half-inhibitory concentration (IC50) in data set [1] was 2940 nM. In addition, the midpoint of inhibition in data set [2], the IC50, lay at 14000 nM. Moreover, the half-inhibitory concentration (IC50) in data set [3] is 2780 nM. This molecule also yielded an IC50 in data set [4] of 770 nM. For the same molecule, the IC50 in data set [5] stood at 4540 nM. For the same molecule, the IC50 in data set [6] was over 10000 nM.

As to `Cc1ccc(S(=O)(=O)c2nc3ccccc3nc2N2CCN(C)CC2)cc1` [Compound 15, 2-(4-Methylpiperazin-1-yl)-3-(4-methylphenylsulfonyl)quinoxaline], the melting point was in the range of 127 to 130 °C. The same molecule showed an IC50 in data set [1] of 840 nM. This molecule also gave a half-inhibitory concentration (IC50) in data set [2] of 2400 nM. In addition, half-maximal inhibition in data set [3] (IC50) required 1680 nM. The molecule further came in with an IC50 in data set [4] of 690 nM. In data set [5], the midpoint of inhibition, the IC50, lay at 470 nM. In data set [6], the IC50 is over 10000 nM.

With `CN1CCN(c2nc3ccccc3nc2S(=O)(=O)c2ccc(Br)cc2)CC1` [Compound 17, 2-(4-Methylpiperazin-1-yl)-3-(4-bromophenylsulfonyl)quinoxaline], the melting point lay in the range of 141 to 142 °C. The same molecule displayed an IC50 in data set [1] of 1010 nM. Moreover, the IC50 in data set [2] stood at 5180 nM. The same molecule had a concentration for half-maximal inhibition (IC50) in data set [3] of 2310 nM. This molecule showed an IC50 in data set [4] of 280 nM. This molecule also came in with an IC50 in data set [5] of 870 nM. For the same molecule, in data set [6], the “Binding efficiency index (BEI)” value came out at 12.0 and the concentration for half-maximal inhibition (IC50) amounted to 4250 nM.

`O=S(=O)(c1ccc(Br)cc1)c1nc2ccccc2nc1N1CCNCC1` [Compound 22, 2-(Piperazin-1-yl)-3-(4-bromophenylsulfonyl)quinoxaline] registered a melting point of 92 to 96 °C. The same molecule gave an IC50 in data set [1] of 360 nM. For the same molecule, in data set [2], the concentration for half-maximal inhibition (IC50) was found to be 750 nM. For the same molecule, in data set [3], the concentration for half-maximal inhibition (IC50) stood at 190 nM. The same molecule gave a half-inhibitory concentration (IC50) in data set [4] of 100 nM. Moreover, 9890 nM corresponded to half-maximal inhibition in data set [5] (IC50). In data set [6], the “Binding efficiency index (BEI)” value was found to be 17.0 and the IC50 amounted to 40 nM.

`Cc1ccc(S(=O)(=O)c2nc3ccccc3nc2N2CCNC(C)C2)cc1` (centres unmarked) [Compound 25, 2-(3-Methylpiperazin-1-yl)-3-(4-methylphenylsulfonyl)quinoxaline] registered a melting point of 136 to 138 °C. The same molecule displayed an IC50 in data set [1] of 2030 nM. This molecule returned an IC50 in data set [2] of 1600 nM. The same molecule gave a half-maximal inhibitory concentration (IC50) in data set [3] of 1170 nM. Also, the half-inhibitory concentration (IC50) in data set [4] is 90 nM. Besides, in data set [5], half-maximal inhibition (IC50) was put at 9180 nM. In data set [6], the “Binding efficiency index (BEI)” value was 16.2 and the 50% inhibitory concentration (IC50) amounted to 650 nM.

Take `CS(=O)(=O)N1CCN(c2nc3ccccc3nc2S(=O)(=O)c2ccc(F)cc2)CC1` [Compound 43, 2-(4-(Methylsulfonyl)piperazin-1-yl)-3-(4-fluorophenylsulfonyl)quinoxaline]: the melting point fell in the range of 206 to 207 °C. This molecule also gave an IC50 in data set [1] of 3300 nM. In data set [2], this molecule had an IC50 of 1260 nM. Besides, it took 330 nM to reach half-maximal inhibition in data set [3] (IC50). For the same molecule, in data set [6], the “Binding efficiency index (BEI)” value was 13.3 and the 50% inhibitory concentration (IC50) amounted to 1010 nM.
